Assay results reported in patent publication US7153822B2, “Compositions and methods for modulating connexin hemichannels” (Wyeth, priority 2002, dated 2006).
Square brackets hold non-standard residues; d marks the D form. Peptide text beside a SMILES is read from it. dHyp = O=C(O)[C@H]1C[C@H](O)CN1

What was measured:
Ventricular myocytes = assay: volume measurements in cardiomyocytes during metabolic inhibition; type: cell-based, rat; settings: 0.1 nM in stress medium, six experiments (stress alone 1.06±0.02, control 0.94±0.04)
Experimental: 1. Methods: Ventricular myocytes were isolated from neonate rats by trypsin digestion and plated onto collagen-coated cover slips. After four days the myocytes formed confluent and synchronously beating sheets of cells. To measure cell volume cells were loaded with calcein-AM (5 μM in control buffer) for 15 minutes at 37° C. and the cover slips mounted in an open bath chamber. The following experiments were performed at room temperature. Using a Leica laser confocal microscope, an optical cross-section was performed every 20 seconds throughout the duration of the experiments.
The optical cross-sections were analyzed using Metamorph (Universal Imaging). The area of the cell was determined as the area of pixels with fluorescence intensities higher than a threshold value chosen to minimize background induced fluctuations. Data are presented as relative volumes by dividing each value by the average area under control conditions (the last measurement before metabolic stress).
(§1) Solutions: Control buffer (in mM): NaCl 136, KCl 4, MgCl2 0.8, CaCl2 1.8 HEPES 5, MES 5, Glucose 6, pH 7.3 Stress buffer (in mM): NaCl 136, KCl 8, MgCl2 0.8, CaCl2 1.8 HEPES 5, MES 5, Deoxy-glucose 10, pH 6.2

[1] = tested on: osteoblastic rat osteosarcoma cell lines; settings: dye transfer after Lucifer Yellow injection; cited from earlier work
connexin hemi-channels = assay: calcein dye uptake in cardiomyocytes under stress buffer (Example 6); type: cell-based, rat
Experimental: 1. Methods Ventricular myocytes were isolated from neonate rats by trypsin digestion and plated onto collagen-coated cover slips. After four days the myocytes formed confluent and synchronously beating sheets of cells. To measure dye uptake, cells were incubated in buffer containing 200 μM calcein for 30 minutes at room temperature. Then coverslips were thoroughly washed with control buffer and mounted in an open bath chamber and superfused with control buffer (RT). Cells were excited with 480 nm light by means of a Xenon lamp and a monochromator. Images of the fluorescence emitted at 510 nm were collected by a cooled CCD camera (Sensicam). Excitation control and image acquisition was controlled using Imaging workbench (Axon).
Under light microscopy three regions were placed over cardiomyocytes in an image. Then average fluorescence intensity was measured, and the procedure was repeated until 30 regions in 10 images had been measured. The average of these measurements were used as value for the given experimental condition, that is n=1. In each series one control incubation was performed and all experimental values are given as relative to this value.
as §1

[2] = tested on: human osteoblast cultures; settings: dye transfer after Lucifer Yellow injection; cited from earlier work
[3] = tested on: rats subjected to myocardial infarction; assay: myocardial infarction by LAD ligation in rats, three weeks of treatment; type: in vivo, rat
Experimental: Male Lewis rats (300–350 g; M&B, L1. Skendsved, Denmark) were anaesthetized with a neurolept anaesthesic combination (Hypnorm® (fentanyl citrate 0.315 mg/ml and fluanisone 10 mg/ml)+midazolam (5 mg/ml)). Commercial solution of midazolam was diluted 1:2 in distilled water. Three parts of the diluted midazolam is mixed with one part hypnorm®. Anesthesia was induced by s.c. administration of 0.2 ml of this solution per 100 gram rat. When surgical anesthesia was established, an endotracheal cannula is inserted and the animal is artificially ventilated using a Harvard rodent ventilator adjusted to maintain arterial pH at 7.3–7.5 during surgery.
Doses used are shown below in Table I:
Three weeks after ligation of LAD, the rats were anesthetized with an i.p, injection of pentobarbital (50 mg/kg). The animals were placed on a heating blanket in order to maintain body temperature at 37° C. Tracheotomy was performed and the rat was ventilated with oxygen using a Harvard rodent ventilator. The ventilator was adjusted to maintain arterial pH at 7.35–7.45. PE50 catheters were placed in the femoral vein and artery for i.v. administration and arterial pressure measurements, respectively. After insertion of the femoral i.v. catheter, the animal was paralysed by i.v. administration of pancuronium, 1 mg/kg. Anaesthesia and respiratory paralysis is maintained by continuous i.v. infusion of pentobarbital (2.5 mg/kg/h) and pancuronium (1 mg/kg/h) delivered in isotonic saline (50 μl/min). A tygon catheter was inserted into the left ventricle via the right carotid artery for determination of left ventricular end-diastolic pressure. After recording of left ventricular end-diastolic pressure (LVEDP), The hearts are removed from the bodies by cutting the veins and arteries a few mm from the hearts. […]
Using a microscope with a stage that can be moved in predetermined steps, both Masson-trichrome stained slides were examined and the number of points hitting fibrous tissue (blue stained in Masson-trichrome) and normal tissue are counted. […] Infarct size was calculated as % fibrous tissue in the heart.

the receptor = assay: in situ binding and animal studies
Experimental: Compounds used in this example were made using standard solid phase Fmoc chemistry. See the prior examples. Identification was performed by mass spectrometry, and the purity, determined by RP-HPLC. […] Initial studies with compound 1 in 1 nM, 10 nM, 50 nM and 100 nM will determine whether studies with the following peptides compound 3 (H-GAG-4-Hyp-PY-NH2) and compound 4 (H-GNY-NH2) are conducted. These studies will also determine whether studies involving specific kinase inhibitors are conducted.

[4] = rat, in vivo, sc
Experimental: Compound 1 was delivered by an osmotic minipump (Alzet model 2ML4) that was inserted into the intraperitoneal (i.p.) cavity immediately prior to induction of the myocardial infarction. The pump was filled with vehicle (isotonic saline) or Compound 1 and primed at 37° C. for 24 hours prior to the operation. In order to ensure that the therapeutic plasma concentration was obtained already at the time of infarction, a loading dose of Compound 1 was given s.c. prior to ligation of the LAD.
After administration of the s.c. loading dose of Compound 1 and after i.p. insertion of the osmotic minipump, a left thoracotomy was performed, and the left anterior decending artery was ligated using a 6-0 silk suture. The thorax is closed in layers, and a negative pressure was induced in the pleural cavity to unfold the lungs. Sham-operated animals were subjected to the same procedure without ligation of the LAD. Postoperatively, the animal were allowed to recover in a heated cabinet at 30° C. with 50% oxygen until the next morning. To prevent dehydration during the recovery period, the rat was given 5 ml 5% glucose s.c. immediately after completion of surgery and another 5 ml 5% glucose at 4 p.m. To relieve postoperative pain, the rat was treated with buprenorphine (20 μg/100 g s.c. b.i.d.) and meloxicam (0.1 mg/100 g s.c. once daily) for three days after the myocardial infarction. […] Plasma concentrations of Compound 1 were measured by mass spectrometry following solid phase extraction.

[5] = tested on: neonatal rat ventricular cardiomyocytes; settings: cited from earlier work

CC(=O)N[C@H](Cc1ccc(O)cc1)C(=O)N1CCC[C@@H]1C(=O)N1C[C@@H](O)C[C@@H]1C(=O)NCC(=O)N[C@H](C)C(=O)NCC(N)=O [Compound 1, Ac-D-Tyr-D-Pro-D-4Hyp-Gly-D-Ala-Gly-NH2] (Ac-[dY][dP][dHyp]G[dA]G-NH2)
average relative volume during stress (Ventricular myocytes): 0.93±0.05
reversal of hypoxia-induced decrease of calcium wave propagation [1]: completely reversed
EC50 (connexin hemi-channels; 0.1 pM to 10 nM, sigmoidal function, read-out: ED50 for reduction of stress-induced calcein uptake): 3.3 ± 5.3 pM
average fluorescence intensity during maximal inhibition, above control (connexin hemi-channels; stress buffer (stress alone 36.2±4.18% higher)): 6.9±1.7 % above control
effect on uptake of calcein (connexin hemi-channels; stress, 0.1 pM to 10 nM): dose-dependently reduced the uptake of calcein
reversal of hypoxia-induced decrease of calcium wave propagation [2]: completely reversed
left ventricular end-diastolic pressure ([3]; either dose, three weeks): reduced left ventricular end-diastolic pressure
heart weight-body weight ratio ([3]; rats, three weeks after MI): reduced by the two highest doses
reduction of infarct size relative to vehicle treated MI rats ([3]; treatment for three weeks): 20–50%
binding to the receptor (the receptor): nano-molar range
time to steady-state plasma level [4]: 3 min
noradrenalin-induced PI turnover, level relative to normal ([5]; during oxygen and glucose deprivation (untreated app. 50%)): ~90 % of the normal level
noradrenalin-induced level of PI turnover ([5]; normal atmospheric and nutritional conditions): does not alter
